Measured values: patent publication US20120156314A1, “11 beta, 13-DIHYDROHELENALIN DERIVATIVES AND USES THEREOF AS BOMBESIN RECEPTOR SUBTYPE 3 AGNOISTS” (VIOGENE-BIOTEK CORPORATION, priority 2010, published 2012)
Like-named read-outs stand apart in the source and are kept apart here.

Columns and labels:
[1] = system: U2OS cells that does not express BRS3
Protocol: After two washes with assay buffer, 2 ml of cell suspension were placed in a Delta PTI Scan 1 spectrofluorimeter (Photon Technology International, South Brunswick, N.J.) equipped with a stir bar and water bath (37° C.). Fluorescence was measured at dual excitation wavelengths of 340 nm and 380 nm, using an emission wavelength of 510 nm. Autofluorescence was corrected for by running a sample of unlabeled cells in identical experimental conditions.

[2] = biological target: T1, human BRS3 (Homo sapiens, UniProt P32247); assay: Cytosolic Ca++ mobilization assay in U2OS cells expressing BRS3; format: cell-based; details: for magnitude of released calcium and time to reach the peak of the transient: dose response
T1 construct: expressed in transfected cells; host or cells: U2OS
T1 sequence (P32247 1-399): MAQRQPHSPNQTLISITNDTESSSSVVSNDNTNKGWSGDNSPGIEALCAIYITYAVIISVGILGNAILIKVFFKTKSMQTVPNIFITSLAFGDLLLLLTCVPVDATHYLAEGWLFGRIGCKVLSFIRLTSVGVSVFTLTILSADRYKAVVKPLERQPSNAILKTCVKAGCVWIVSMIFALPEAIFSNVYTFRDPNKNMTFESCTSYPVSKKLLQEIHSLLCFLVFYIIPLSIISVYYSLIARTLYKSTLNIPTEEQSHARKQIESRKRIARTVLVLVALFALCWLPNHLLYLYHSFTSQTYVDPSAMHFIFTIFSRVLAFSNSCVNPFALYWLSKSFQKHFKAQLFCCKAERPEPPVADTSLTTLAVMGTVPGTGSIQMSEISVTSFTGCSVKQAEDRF
Protocol: Fluorescence was measured at dual excitation wavelengths of 340 nm and 380 nm, using an emission wavelength of 510 nm. Autofluorescence was corrected for by running a sample of unlabeled cells in identical experimental conditions.

[3] = biological target: BRS3 (Homo sapiens, UniProt P32247); assay: cell-based
Description: Formation of the arrestin-receptor complex occurred as the agonist bind to the receptor and it is able to trace the translocation of this complex from plasma membrane to cytoplasm in a form of endocytoplamic vesicles. Monitoring the distribution and translocation of GFP-labeled arrestin in cell expressing BRS3, we are able to measure the ability of the crude extracts to activate BRS3.

[4] = biological target: NMBR (Homo sapiens, UniProt P28336); assay: cell-based; details: Table 6
NMBR, sequence (P28336 whole entry, species assumed): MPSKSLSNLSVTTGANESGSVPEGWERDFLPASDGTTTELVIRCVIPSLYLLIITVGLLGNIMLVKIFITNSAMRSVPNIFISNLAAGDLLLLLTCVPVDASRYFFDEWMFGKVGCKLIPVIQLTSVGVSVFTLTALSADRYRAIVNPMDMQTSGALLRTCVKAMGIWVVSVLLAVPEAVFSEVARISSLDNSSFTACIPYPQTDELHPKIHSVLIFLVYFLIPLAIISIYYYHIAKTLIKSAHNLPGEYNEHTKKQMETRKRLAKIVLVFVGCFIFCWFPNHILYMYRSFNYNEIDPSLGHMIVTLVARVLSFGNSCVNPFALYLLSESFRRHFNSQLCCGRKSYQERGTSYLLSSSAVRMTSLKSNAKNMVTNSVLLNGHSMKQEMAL

[5] = biological target: GRPR (Homo sapiens, UniProt P30550); assay: cell-based; details: Table 6
GRPR, sequence (P30550 whole entry, species assumed): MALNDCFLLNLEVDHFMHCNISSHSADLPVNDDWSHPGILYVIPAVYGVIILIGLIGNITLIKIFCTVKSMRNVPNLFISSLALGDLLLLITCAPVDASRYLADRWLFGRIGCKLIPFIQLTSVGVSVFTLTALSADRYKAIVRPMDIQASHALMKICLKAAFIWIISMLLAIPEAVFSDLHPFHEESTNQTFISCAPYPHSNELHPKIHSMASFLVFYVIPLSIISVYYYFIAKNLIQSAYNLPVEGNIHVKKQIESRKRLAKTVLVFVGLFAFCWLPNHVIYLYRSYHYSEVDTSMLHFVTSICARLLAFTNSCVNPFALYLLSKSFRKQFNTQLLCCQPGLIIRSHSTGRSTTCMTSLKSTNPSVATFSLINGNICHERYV

[6] = Table 5, U2OS cells expressing human BRS3, read-out: EC50 Ca++

CCC(C)C(=O)O[C@H]1[C@H]2[C@@H](C[C@@H](C)C3C=CC(=O)[C@]31C)OC(=O)[C@@H]2C (some centres unmarked) [Compound 4, Microhelenin B] was tested, and the “cytosolic Ca++ release in cells without BRS3” value [1] was “not able to stimulated cytosolic Ca^++ release”, the EC50 [2] was 4.2 µM and the “time of return of cytosolic calcium to basal levels” value ([2]; 6.8 μg/ml) was 1 min. The “time to maximal level of cytosolic calcium” value ([2]; 6.8 μg/ml) was 13 s, the “magnitude of released calcium and time to reach the peak of the transient” value (shortened to “magnitude of released calcium and time”) [2] was “concentration-dependent and saturable” and the EC50 ([3]; EC50 Arrestin, Table 5) was 2.35 µM. For the same molecule, the EC50 ([3]; EC50 BRS3, Table 6) was 3.73 µM, the EC50 [4] was over 861 µM and the EC50 [5] was over 861 µM.
For CCC(C)C(=O)O[C@H]1[C@@H]2[C@H](C)C(=O)O[C@@H]2C[C@@H](C)C2[C@@H](C)CC(=O)[C@]21C (stereo partly drawn) [Compound B, 11α-13-dihydroarnifolin B], the “cytosolic Ca++ release in cells without BRS3” value [1] was “not able to stimulated cytosolic Ca^++ release”, the “time of return of cytosolic calcium to basal levels” value ([2]; 25 μg/ml) was 1 min and the “time to maximal level of cytosolic calcium” value ([2]; 25 μg/ml) was 13 s. For the same molecule, the EC50 [2, 6] was 9.6 µM, the “magnitude of released calcium and time” value [2] was “concentration-dependent and saturable” and the EC50 ([3]; EC50 Arrestin, Table 5) was 14 µM. The EC50 ([3]; EC50 BRS3, Table 6) was 13.7 µM, the EC50 [4] was over 823 µM and the EC50 [5] was over 686 µM.
CC(C)CC(=O)O[C@H]1[C@H]2[C@@H](C[C@@H](C)[C@@H]3C=CC(=O)[C@]31C)OC(=O)[C@@H]2C [Compound 5, Arnicolide B] gave an EC50 [2] of 20 µM and an EC50 ([3]; EC50 Arrestin, Table 5) of 7.5 µM.
With C=C(C)C(=O)O[C@H]1[C@H]2[C@@H](C[C@@H](C)[C@@H]3C=CC(=O)[C@]31C)OC(=O)[C@@H]2C [Compound 1, Arnicolide D] the EC50 [2] was 10 µM and the EC50 ([3]; EC50 Arrestin, Table 5) was 2.8 µM.
CC=C(C)C(=O)OC1C2C(CC(C)C3C=CC(=O)C31C)OC(=O)C2C (centres unmarked) [Compound 3, Microhelenin C] gave an EC50 [2] of 11 µM and an EC50 ([3]; EC50 Arrestin, Table 5) of 2 µM.
Work on CC(C)C(=O)O[C@H]1[C@H]2[C@@H](C[C@@H](C)[C@@H]3C=CC(=O)[C@]31C)OC(=O)[C@@H]2C [Compound 2, Arnicolide C] yielded an EC50 [2] of 12 µM and an EC50 ([3]; EC50 Arrestin, Table 5) of 2.8 µM.
CCC(C)C(=O)O[C@H]1[C@@H]2[C@H](C)C(=O)O[C@@H]2C[C@@H](C)C2[C@@H](O)CC(=O)[C@]21C (some centres unmarked) [Compound A, arnifoline] was tested, and the EC50 [2, 6] was 2.6 µM, the “magnitude of released calcium and time” value [2] was “concentration-dependent and saturable” and the EC50 ([3]; EC50 Arrestin, Table 5) was 2.7 µM. For the same molecule, the EC50 ([3]; EC50 BRS3, Table 6) was 2.73 µM, the EC50 [4] was over 1360 µM and the EC50 [5] was over 1360 µM.
